# Reference: patent publication US20230125429A1 (priority 2017, published 2023)
# Tests used:
# [1] = tested on: HepG2-GFP orthotopic xenograft tumor; details: Triptonide 25 mg/kg by gavage every other day; Sorafenib intraperitoneal; n=10 per cohort
# [2] = tested on: Par2 knockout keratinocytes; assay: Growth of Par2 knockout primary keratinocytes, one hour treatment; assay type: cell-based, mouse; details: as high as 800 nM, one hour
# [3] = tested on: mimosine treated HepG2 cells; assay: Cell cycle analysis by flow cytometry (PI staining); assay type: cell-based, human; details: 2 µM, by 24 hours
# [4] = tested on: Par2 knockout keratinocytes; assay: Growth of Par2 knockout primary keratinocytes, continuous exposure; assay type: cell-based, mouse; details: as low as 1.25 nM (lowest examined)
# Procedure: For the neonatal mouse keratinocyte culture, the dorsal skins of neonatal wild type or Par2 knockout mice were harvested from wild type or Par2 knockout mice, respectively. The skins were incubated overnight at 4° C. in a 0.25% solution of trypsin (Life Technologies, USA) in phosphate-buffered saline (PBS) without calcium and magnesium. The epidermis was then separated from the adjoining dermis, and the dispersed epidermal cells were collected in suspension Eagle’s minimal essential medium (SMEM) (Life Technologies, USA) supplemented with glutamine and 8% calcium free fetal calf serum (FCS) (Life Technologies, USA). The cells were plated onto individual wells of 48 well plates (Corning, USA), which were pre-coated with collagen (Life Technologies, USA), at a density of 70,000 cells/well. The cell cultures were kept for 12 hours at 34° C. in a humidified incubator containing 8% CO2. […]
# For primary hepatocytes, the seeded cells were monitored for up to 48 hours either without any treatment (as a control) or with various types of treatments. For primary keratinocytes, cells in 48-well plates were monitored either without any treatment or with various types of treatment for up to 96 hours. For HepG2, cells 96-well plates were monitored either without any treatment or with various types of treatments for up to 48 hours. […]
# ERK phosphorylation = ERK phosphorylation in HepG2 cells (Western blot); assay type: cell-based, human; details: serum-starved HepG2; trypsin 50 nM, Triptolide 1 µM, Triptonide 1 µM; 0-40 minutes
# wild-type keratinocytes [5] = assay: Growth of wild-type primary keratinocytes, short-term treatment; assay type: cell-based, mouse; details: as high as 800 nM, one hour
# wild-type keratinocytes [6] = assay: Growth of wild-type primary keratinocytes, continuous exposure; assay type: cell-based, mouse; details: as low as 1.25 nM (lowest examined), continuous exposure
# Procedure: For the neonatal mouse keratinocyte culture, the dorsal skins of neonatal wild type or Par2 knockout mice were harvested from wild type or Par2 knockout mice, respectively. The skins were incubated overnight at 4° C. in a 0.25% solution of trypsin (Life Technologies, USA) in phosphate-buffered saline (PBS) without calcium and magnesium. The epidermis was then separated from the adjoining dermis, and the dispersed epidermal cells were collected in suspension Eagle’s minimal essential medium (SMEM) (Life Technologies, USA) supplemented with glutamine and 8% calcium free fetal calf serum (FCS) (Life Technologies, USA). The cells were plated onto individual wells of 48 well plates (Corning, USA), which were pre-coated with collagen (Life Technologies, USA), at a density of 70,000 cells/well. The cell cultures were kept for 12 hours at 34° C. in a humidified incubator containing 8% CO2. Low calcium (0.05 mM) S-MEM, containing 8% FCS was then added to initiate the culture. The culture medium was changed every 2 days.
# For primary hepatocytes, the seeded cells were monitored for up to 48 hours either without any treatment (as a control) or with various types of treatments. For primary keratinocytes, cells in 48-well plates were monitored either without any treatment or with various types of treatment for up to 96 hours. For HepG2, cells 96-well plates were monitored either without any treatment or with various types of treatments for up to 48 hours. The IncuCyte Zoom was set to take a set of images at fixed locations (4 per well for 96-well plates and 16 per well for 48-well plates and 12-well plates) every three hours.
# To address this question, we took a genetic approach.
# [7] = tested on: mimosine-treated HepG2 cells; assay: One-hour treatment of mimosine-treated HepG2 cells, live cell imaging; assay type: cell-based, human; details: one-hour treatment
# PKA = assay: Measurement of PKA activity in HepG2 cells; assay type: cell-based, human; details: one-hour treatment in regular medium (Trypsin 50 nM, Triptonide 1 µM); hour 9 and 10 after mimosine
# cAMP = assay: Measurement of cAMP levels in HepG2 cells; assay type: cell-based, human; details: treatment 2 hours after mimosine; Trypsin 50 nM, Triptonide 1 µM; serum-free
# HepG2 cells = assay: Blocking the AC-cAMP-PKA pathway, growth of HepG2 cells; assay type: cell-based, human; details: Triptonide 1 µM, Vidarabine 10 µM, PKI 2.5 µM, alone or combined
compound,measurement,setting,value
"CNC(=O)c1cc(Oc2ccc(NC(=O)Nc3ccc(Cl)c(C(F)(F)F)c3)cc2)ccn1 [Sorafenib, reference compound]",tumor specific (GFP) signals,[1],lower intensities of the tumor specific signals at all time points
"CC(C)[C@]12O[C@H]1[C@@H]1O[C@]13[C@]1(O[C@H]1C[C@H]1C4=C(CC[C@@]13C)C(=O)OC4)[C@@H]2O [Triptolide, reference compound]",growth inhibitory effect on Par2 knockout keratinocytes,[2],did not have any significant growth inhibitory effect
same,"sub-G1 (<2N, apoptotic) population",[3],significant peaks of the sub-G1
same,lethality for Par2 knockout keratinocytes,[4],complete lethality
same,levels of phosphorylated ERK,ERK phosphorylation,no significant effects
same,growth inhibitory effect on wild-type keratinocytes,wild-type keratinocytes [5],did not have any significant growth inhibitory effect
same,lethality for wild-type keratinocytes,wild-type keratinocytes [6],complete lethality
same,growth and mitotic catastrophe,"[7]; 1 µM, regardless of time","growth inhibitory, but did not cause mitotic catastrophe"
same,growth and chromatin condensation,"[7]; 2 µM, at 0 and 2 hours after mimosine treatment","not only growth inhibitory, but also caused chromatin condensation"
Trypsin,level of PKA activity around G2/M transition,PKA,reduced significantly
same,levels of phosphorylated ERK,ERK phosphorylation,two-stage increase
same,levels of cAMP,cAMP,modest and transient elevations
"Nc1ncnc2c1ncn2[C@@H]1O[C@H](CO)[C@@H](O)[C@@H]1O [Vidarabine, reference compound]",effect on growth of HepG2 cells,HepG2 cells,no significant effects
